Data from publication PMC9005681, “Use of AD Informer Set compounds to explore validity of novel targets in Alzheimer's disease pathology” (Alzheimer's & Dementia : Translational Research & Clinical …, 2022).
Read-outs that look alike come from different tables or passages of the source.

What was measured:
[1] = target: T1, cloned human or rodent CNS receptors, channels, and transporters (PDSP panel) (Cavia porcellus, UniProt Q60492); assay: PDSP GPCR panel primary binding assays at 10 μM; settings: Sigma 1, primary assay; for Inhibition 1: replicate 1; for Inhibition 2: replicate 2; for Inhibition 3: replicate 3; for Inhibition 4: replicate 4
T1 construct: expressed in transfected cells
Summary of the method: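 Competition binding with radiolabeled standard ligands, single 10 μM concentration, four replicates. Targets showing over 50% displacement were followed up with 11-point titrations in triplicate.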

EPHX2 = test system: EPHX2; design: method as in column References for potency and dosing (the 5th table c13); settings: cited from earlier work
dopamine transporter = target: T2, dopamine transporter (Homo sapiens, UniProt Q01959); assay: PDSP secondary binding, dopamine transporter; design: species or system human or rodent
T2 construct: expressed in transfected cells
Description: (§1) GPCR panel: Screening against the receptors within the PDSP panel offers an assessment of off-target pharmacological activity at cloned human or rodent CNS receptors, channels, and transporters that could confound CNS-related phenotypes. A total of 46–47 primary binding assays were run in quadruplicate on these compounds at 10 μM, with follow-up secondary binding assays in 11-point dose-response in triplicate for select compounds versus select receptors. Secondary binding assays were executed for all receptors where test compound displaced an average of >50% of radio-labeled standard ligand. As an exception, no secondary assays were carried out for H3, PBR, or GABAA. […]

[2] = cited from earlier work
human nerve cells = test system: human nerve cells; design: method as in PMID 31378059; settings: cited from earlier work
[3] = test system: tau hyperphosphorylation species (Ser396 and Ser404); design: method as in PMID 32488482; settings: 5 mg/kg/day; cited from earlier work
CAPN2 = test system: CAPN2; design: method as in Probe Miner, PubMed 9637399, 31133534, 30052328; settings: published affinity; ref Probe Miner, PubMed 9637399, 31133534, 30052328; cited from earlier work
[4] = test system: N2a cells stably expressing wild-type PS1 and myc-tagged Swedish mutant APP (APPsw); design: method as in PMID 16354722; settings: cited from earlier work
Alpha1D receptor = target: T3, Alpha1D receptor (Homo sapiens, UniProt P25100); assay: PDSP secondary binding, Alpha1D; design: species or system human or rodent
T3 construct: expressed in transfected cells
Description: as §1

H4 receptor = target: T4, H4 receptor (Homo sapiens, UniProt Q9H3N8); assay: PDSP secondary binding, H4; design: species or system human or rodent
T4 construct: expressed in transfected cells
Description: as §1

MerTK = test system: MerTK; design: method as in PubMed 25068800, 27649555; settings: published affinity; ref PubMed 25068800, 27649555; cited from earlier work
[5] = test system: HMC3 (human microglia) immortalized cell line; settings: 10 μM, human immortalized microglial cells; cited from earlier work
serotonin transporter = target: T5, serotonin transporter (Homo sapiens, UniProt P31645); assay: PDSP secondary binding, serotonin transporter; design: species or system human or rodent
T5 construct: expressed in transfected cells
Description: as §1

[6] = target: T6, norepinephrine transporter (Homo sapiens, UniProt P23975); assay: PDSP secondary binding, norepinephrine transporter; design: species or system human or rodent
T6 construct: expressed in transfected cells
Description: as §1

FLT3 = test system: FLT3; design: method as in PubMed 25068800, 27649555; settings: published affinity; ref PubMed 25068800, 27649555; cited from earlier work
[7] = mouse, IV, published PK values, cited from earlier work
5-HT2A receptor = target: T7, 5-HT2A receptor (Homo sapiens, UniProt P28223); assay: PDSP secondary binding, 5-HT2A; design: species or system human or rodent
T7 construct: expressed in transfected cells
Description: as §1

T1 sequence (Q60492 whole entry): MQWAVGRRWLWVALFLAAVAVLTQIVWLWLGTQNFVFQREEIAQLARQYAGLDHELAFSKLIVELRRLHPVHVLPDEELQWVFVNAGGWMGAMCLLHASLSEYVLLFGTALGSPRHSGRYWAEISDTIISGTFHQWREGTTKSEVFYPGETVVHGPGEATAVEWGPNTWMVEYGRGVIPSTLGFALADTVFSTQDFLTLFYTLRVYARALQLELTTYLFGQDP
T7 sequence (P28223 whole entry): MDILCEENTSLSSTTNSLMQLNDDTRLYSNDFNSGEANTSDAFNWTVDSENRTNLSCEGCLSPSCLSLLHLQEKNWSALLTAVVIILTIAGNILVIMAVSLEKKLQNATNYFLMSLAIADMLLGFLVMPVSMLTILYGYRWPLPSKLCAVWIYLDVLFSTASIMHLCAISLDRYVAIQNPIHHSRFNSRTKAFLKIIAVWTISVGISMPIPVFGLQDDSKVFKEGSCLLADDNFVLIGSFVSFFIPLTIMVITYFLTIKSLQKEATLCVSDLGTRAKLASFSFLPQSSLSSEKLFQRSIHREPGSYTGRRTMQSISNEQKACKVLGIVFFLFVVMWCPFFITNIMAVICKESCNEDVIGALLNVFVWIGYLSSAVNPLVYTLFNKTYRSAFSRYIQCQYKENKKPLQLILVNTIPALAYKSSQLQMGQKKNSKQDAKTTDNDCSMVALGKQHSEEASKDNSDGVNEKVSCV
T2 sequence (Q01959 whole entry): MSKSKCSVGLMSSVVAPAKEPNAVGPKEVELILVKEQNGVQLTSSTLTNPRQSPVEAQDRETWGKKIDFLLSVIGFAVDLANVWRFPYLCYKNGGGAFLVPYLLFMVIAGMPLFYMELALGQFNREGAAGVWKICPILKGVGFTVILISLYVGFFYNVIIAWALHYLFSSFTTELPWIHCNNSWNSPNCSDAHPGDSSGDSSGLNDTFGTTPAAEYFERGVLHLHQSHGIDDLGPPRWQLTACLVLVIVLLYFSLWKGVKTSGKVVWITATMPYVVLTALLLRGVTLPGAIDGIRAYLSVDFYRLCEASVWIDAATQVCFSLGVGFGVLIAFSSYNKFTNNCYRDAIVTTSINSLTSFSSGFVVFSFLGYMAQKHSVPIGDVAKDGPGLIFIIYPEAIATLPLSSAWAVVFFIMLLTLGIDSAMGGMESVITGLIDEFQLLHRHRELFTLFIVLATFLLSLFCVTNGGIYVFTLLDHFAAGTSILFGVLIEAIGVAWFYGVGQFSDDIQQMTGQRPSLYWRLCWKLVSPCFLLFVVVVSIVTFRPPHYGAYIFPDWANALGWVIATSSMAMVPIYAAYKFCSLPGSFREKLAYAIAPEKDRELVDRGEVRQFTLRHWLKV
T6 sequence (P23975 whole entry): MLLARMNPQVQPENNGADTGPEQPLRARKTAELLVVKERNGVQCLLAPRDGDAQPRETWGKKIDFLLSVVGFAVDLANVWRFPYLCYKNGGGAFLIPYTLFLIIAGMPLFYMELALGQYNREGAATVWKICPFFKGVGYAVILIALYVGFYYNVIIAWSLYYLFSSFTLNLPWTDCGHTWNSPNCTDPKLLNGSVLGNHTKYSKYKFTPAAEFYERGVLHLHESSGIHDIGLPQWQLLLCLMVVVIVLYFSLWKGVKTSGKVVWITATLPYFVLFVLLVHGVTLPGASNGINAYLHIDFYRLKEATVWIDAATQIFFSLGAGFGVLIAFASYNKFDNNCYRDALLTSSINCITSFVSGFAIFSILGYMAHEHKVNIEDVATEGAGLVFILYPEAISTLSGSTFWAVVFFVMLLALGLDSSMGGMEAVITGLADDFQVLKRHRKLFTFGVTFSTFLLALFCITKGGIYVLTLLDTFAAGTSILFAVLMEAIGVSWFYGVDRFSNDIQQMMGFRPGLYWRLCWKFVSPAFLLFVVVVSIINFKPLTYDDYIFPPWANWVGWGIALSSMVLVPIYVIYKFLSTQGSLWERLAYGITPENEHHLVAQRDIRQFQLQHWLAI
T4 sequence (Q9H3N8 whole entry): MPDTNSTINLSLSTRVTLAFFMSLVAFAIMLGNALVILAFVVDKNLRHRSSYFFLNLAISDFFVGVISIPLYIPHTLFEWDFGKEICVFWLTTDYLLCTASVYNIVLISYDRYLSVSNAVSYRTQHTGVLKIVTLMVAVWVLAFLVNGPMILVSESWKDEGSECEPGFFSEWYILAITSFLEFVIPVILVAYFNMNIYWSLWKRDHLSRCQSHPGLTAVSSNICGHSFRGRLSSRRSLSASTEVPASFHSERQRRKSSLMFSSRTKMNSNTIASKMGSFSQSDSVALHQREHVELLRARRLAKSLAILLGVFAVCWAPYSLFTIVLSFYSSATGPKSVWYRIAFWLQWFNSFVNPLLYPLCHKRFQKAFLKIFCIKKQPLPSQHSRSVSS
T5 sequence (P31645 whole entry): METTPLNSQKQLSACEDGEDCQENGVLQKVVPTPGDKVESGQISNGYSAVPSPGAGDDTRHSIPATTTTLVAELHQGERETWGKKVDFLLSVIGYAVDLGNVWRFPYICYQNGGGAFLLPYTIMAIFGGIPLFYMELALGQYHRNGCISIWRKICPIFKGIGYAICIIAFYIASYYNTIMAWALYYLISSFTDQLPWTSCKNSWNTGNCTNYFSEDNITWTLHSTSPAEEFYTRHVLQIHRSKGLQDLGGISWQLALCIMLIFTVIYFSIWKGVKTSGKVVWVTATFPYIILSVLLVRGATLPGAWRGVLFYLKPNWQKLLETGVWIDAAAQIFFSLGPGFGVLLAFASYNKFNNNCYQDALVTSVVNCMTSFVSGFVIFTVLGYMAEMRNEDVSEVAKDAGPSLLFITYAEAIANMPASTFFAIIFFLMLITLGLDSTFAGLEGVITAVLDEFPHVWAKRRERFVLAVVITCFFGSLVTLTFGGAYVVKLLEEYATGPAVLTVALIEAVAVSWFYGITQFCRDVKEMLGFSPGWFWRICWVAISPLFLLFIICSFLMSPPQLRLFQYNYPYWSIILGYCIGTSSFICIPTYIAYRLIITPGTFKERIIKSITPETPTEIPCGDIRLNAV
T3 sequence (P25100 whole entry): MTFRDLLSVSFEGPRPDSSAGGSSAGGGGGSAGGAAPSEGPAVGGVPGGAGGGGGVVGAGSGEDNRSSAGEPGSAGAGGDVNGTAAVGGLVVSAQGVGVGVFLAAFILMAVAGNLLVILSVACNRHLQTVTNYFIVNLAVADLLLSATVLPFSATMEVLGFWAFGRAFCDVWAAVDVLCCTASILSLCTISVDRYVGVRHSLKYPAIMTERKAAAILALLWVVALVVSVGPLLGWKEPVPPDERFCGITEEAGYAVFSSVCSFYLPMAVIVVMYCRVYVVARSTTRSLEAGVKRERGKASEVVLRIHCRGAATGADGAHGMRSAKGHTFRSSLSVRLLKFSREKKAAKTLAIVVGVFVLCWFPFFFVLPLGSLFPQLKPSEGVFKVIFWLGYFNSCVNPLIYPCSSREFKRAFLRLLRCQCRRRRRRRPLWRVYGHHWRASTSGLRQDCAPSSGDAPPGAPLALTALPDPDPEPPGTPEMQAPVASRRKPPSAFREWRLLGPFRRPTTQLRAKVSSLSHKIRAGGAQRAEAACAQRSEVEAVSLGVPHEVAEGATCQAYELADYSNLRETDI

CNc1nc(C)nc(N[C@H]2CCC[C@@H](C(=O)NCc3ccc(C#N)cc3C(F)(F)F)C2)n1 [UNC10302679A, GSK2256294A]
Inhibition 1 [1]: 19.71%
Inhibition 2 [1]: -1.38%
Inhibition 3 [1]: 9.31%
Inhibition 4 [1]: -10.97%
Reported on-target biochemical potency, EPHX2 (EPHX2; published affinity, References for potency and dosing): 0.027 nM
Ki (dopamine transporter; DAT, secondary assay, run 1, log Ki given with negative sign, read-out: LogKi 1 (converted)): > 10000 nM
Ki (dopamine transporter; DAT, secondary assay, run 1, read-out: Ki (nM) 1): > 10000 nM
Ki (dopamine transporter; DAT, secondary assay, run 2, log Ki given with negative sign, read-out: LogKi 2 (converted)): > 10000 nM
Ki (dopamine transporter; DAT, secondary assay, run 2, read-out: Ki (nM) 2): > 10000 nM

CCC(=O)N1CCC(NC(=O)Nc2ccc(OC(F)(F)F)cc2)CC1 [UNC10302681A, TPPU]
Reported brain penetrance [2]: brain penetrant
Tau hyperphosphorylation (human nerve cells): prevent tau hyperphosphorylation
Tau hyperphosphorylation species (Ser396 and Ser404) [3]: reduction of tau hyperphosphorylation species
Inhibition 1 [1]: 28.89%
Inhibition 2 [1]: 23.6%
Inhibition 3 [1]: 9.78%
Inhibition 4 [1]: 15.99%
Reported on-target biochemical potency, EPHX2 (EPHX2): 3.7 nM

CC(=O)N1CCC(NC(=O)NC23CC4CC(CC(C4)C2)C3)CC1 [UNC10302683A, AR9281]
Reported brain penetrance ([2]; in vivo): brain penetrant
Inhibition 1 [1]: 24.82%
Inhibition 2 [1]: 2.63%
Inhibition 3 [1]: -10.44%
Inhibition 4 [1]: 16.63%
Ki (dopamine transporter; Ki (nM) 1, DAT, secondary assay, run 1): 5760 nM
Ki (dopamine transporter; LogKi 1, DAT, secondary assay, run 1, log Ki given with negative sign): 5750 nM

MDL 28170 [UNC10302675A]
Reported on-target biochemical potency, CAPN2 (CAPN2): 0.01 nM
Inhibition 1 [1]: 35.86%
Inhibition 2 [1]: 2.45%
Inhibition 3 [1]: -0.62%
Inhibition 4 [1]: -14.57%
Secretion of Aβ40 and Aβ42 ([4]; 30 μM for 24 hours): did not inhibit
Levels of secreted Aβ40 and Aβ42 ([4]; 30 μM, between 24 and 48 hours): increased dramatically
Response in secreted Aβ40 or Aβ42 ([4]; concentrations < 5 μM, 48 hours): did not result in a response

CCCCNc1ncc2c(-c3ccc(CN4CCN(C)CC4)cc3)cn([C@H]3CC[C@H](O)CC3)c2n1 [UNC2025C, UNC2025]
Ki (Alpha1D receptor; Receptor Alpha1D, secondary assay, read-out: Ki (nM) 1): 4960 nM
Ki (Alpha1D receptor; calculated Ki, secondary binding assay, read-out: Ki Alpha1D): 5000 nM
Ki (H4 receptor; Receptor H4, secondary assay, read-out: Ki (nM) 1): 4000 nM
Ki (H4 receptor; calculated Ki, secondary binding assay, read-out: Ki H4): 4000 nM
Reported on-target biochemical potency, MERTK (MerTK): 0.00074 µM
Human microglial cytotoxicity at 10 μM (<70% control) [5]: Y (The compound was found to be cytotoxic (cell count threshold: <70% control) when human immortalized microglial cells were dosed at 10 μM (Y: yes))
Ki (serotonin transporter; Receptor SERT, secondary assay, read-out: Ki (nM) 1): 906 nM
Ki (serotonin transporter; calculated Ki, secondary binding assay, read-out: Ki serotonin transporter): 900 nM
Ki ([6]; Receptor NET, secondary assay, read-out: Ki (nM) 1): 1400 nM
Ki ([6]; calculated Ki, secondary binding assay, read-out: Ki norepinephrine transporter): 1400 nM
Reported on-target biochemical potency, FLT3 (FLT3): 0.0008 µM
AUClast ([7]; 3.0 mg/kg): 9.78 µM·h
Cmax ([7]; 3.0 mg/kg): 4.36 µM
Vss ([7]; 3.0 mg/kg): 2.33 L/kg
Ki (5-HT2A receptor; Receptor 5-HT2A, secondary assay, run 1, read-out: Ki (nM) 1): 366 nM
Ki (5-HT2A receptor; Receptor 5-HT2A, secondary assay, run 2, read-out: Ki (nM) 2): 462 nM
Ki (5-HT2A receptor; calculated Ki, secondary binding assay, read-out: Ki 5-HT2A): 400 nM
Ki (dopamine transporter; Receptor DAT, secondary assay, printed as LogKi (negative), read-out: LogKi 1 (converted)): 9770 nM
Ki (dopamine transporter; Receptor DAT, secondary assay, read-out: Ki (nM) 1): 9870 nM
Ki (dopamine transporter; calculated Ki, secondary binding assay, read-out: Ki dopamine transporter): 9900 nM

O=C(NC1CC1)C(=O)C(Cc1ccccc1)NC(=O)[C@H]1CCC(=O)N1Cc1ccccc1 (some centres unmarked) [UNC10302676A, ABT-957 (Alicapistat)]
Reported on-target biochemical potency, CAPN2 (CAPN2): 56 nM
Inhibition 1 [1]: 5.01%
Inhibition 2 [1]: -7.02%
Inhibition 3 [1]: -4.4%
Inhibition 4 [1]: -3.65%
AUClast ([7]; 2.0 mg/kg): 35.6 µM·h
CL ([7]; 2.0 mg/kg): 7.8 mL/min/kg
